Patent publication US9629834B2, “Medicinal composition for inhibiting formation and/or enlargement of cerebral aneurysm or shrinking same” (KYOTO UNIVERSITY, priority 2013, dated 2017)

Test: Influences on blood pressure and heart rate of rats (tail-cuff method)
Assay type: in vivo, SD rat
Details: 0.03 or 0.1 mg/kg oral once a day, Day 1 to Day 27; measured Day 28, without anesthesia; FIG. 7A and FIG. 7B
Protocol: Immediately before dissecting rats 28 days after surgery (Day 28) as described in the section (1) of Example 1, blood pressure and heart rate of each of rats were measured noninvasively without anesthesia by a tail-cuff method. The measurement was conducted by using a noninvasive blood pressure measuring device for rats and mice BP-98A (Softron). The measurement was conducted three times per rat, and the mean value was used for calculating the mean value of all rats in each of the groups. No influence of the administration of Compound 1 on any blood pressure (SBP: systolic blood pressure, MBP: mean blood pressure, DBP: diastolic blood pressure) or heart rate was observed.

C[C@H](Oc1ccc(-c2nc(-c3ccc4[nH]cnc4c3)no2)cc1C(F)(F)F)C(F)(F)F.Cl [Compound 1, 5-{5-[3-(trifluoromethyl)-4-{[(2S)-1,1,1-trifluoropropan-2-yl]oxy}phenyl]-1,2,4-oxadiazol-3-yl}-1H-benzimidazole hydrochloride]
influence on blood pressure (SBP, MBP, DBP): No influence | influence on heart rate: No influence
